Experimental data: ChEMBL document CHEMBL3351373, “Five-membered heteroaromatic ring fused-pyrimidine derivatives: design, synthesis, and hedgehog signaling pathway inhibition study” (Bioorg Med Chem Lett, 2014)

Assay: Inhibition of hedgehog receptor signaling pathway in mouse NIH3T3 cells transfected with Gli-reporter gene by luciferase reporter gene assay
Format: cell-based

SMILES	IC50
Cc1cccc(C)c1NC(=O)c1ccc(Nc2nc(-c3ccc(OC(F)(F)F)cc3)c3ccn(C)c3n2)cc1	2.58 nM
CS(=O)(=O)c1ccc(C(=O)Nc2ccc(Cl)c(-c3ccccn3)c2)c(Cl)c1 [VISMODEGIB]	7.17 nM
Cc1ccc(CN2CCOCC2)cc1NC(=O)c1ccc(Nc2nc(-c3ccc(OC(F)(F)F)cc3)c3ccsc3n2)cc1	1.75 nM
Cc1cccc(C)c1NC(=O)c1ccc(Nc2nc(-c3ccc(OC(F)(F)F)cc3)c3occc3n2)cc1	1.78 nM
Cc1cccc(C)c1NC(=O)c1ccc(Nc2nc(-c3ccc(OC(F)(F)F)cc3)c3ccsc3n2)cc1	0.6 nM
Cc1ccc(CN2CCN(C)CC2)cc1NC(=O)c1ccc(Nc2nc(-c3ccc(OC(F)(F)F)cc3)c3sccc3n2)cc1	9.39 nM
Cc1ccc(CN2CCN(C)CC2)cc1NC(=O)c1ccc(Nc2nc(-c3ccc(OC(F)(F)F)cc3)c3c(ccn3C)n2)cc1	5.1 nM
Cc1cccc(C)c1NC(=O)c1ccc(Nc2nc(-c3ccc(OC(F)(F)F)cc3)c3c(ccn3C)n2)cc1	1.17 nM
Cc1ccc(CN2CCOCC2)cc1NC(=O)c1ccc(Nc2nc(-c3ccc(OC(F)(F)F)cc3)c3occc3n2)cc1	1.13 nM
Cc1ccc(CN2CCN(C)CC2)cc1NC(=O)c1ccc(Nc2nc(-c3ccc(OC(F)(F)F)cc3)c3ccsc3n2)cc1	3.36 nM
Cc1cccc(C)c1NC(=O)c1ccc(Nc2nc(-c3ccc(OC(F)(F)F)cc3)c3sccc3n2)cc1	3.61 nM
Cc1cccc(C)c1NC(=O)c1ccc(Nc2nc(-c3ccc(OC(F)(F)F)cc3)c3ncn(C)c3n2)cc1	116 nM
Cc1cccc(C)c1NC(=O)c1ccc(Nc2nc(-c3ccc(OC(F)(F)F)cc3)c3nc[nH]c3n2)cc1	512 nM
Cc1cccc(C)c1NC(=O)c1ccc(Nc2nc(-c3ccc(OC(F)(F)F)cc3)c3cc[nH]c3n2)cc1	6.85 nM
Cc1ccc(CN2CCN(C)CC2)cc1NC(=O)c1ccc(Nc2nc(-c3ccc(OC(F)(F)F)cc3)c3nc[nH]c3n2)cc1	0.9 nM
Cc1ccc(CN2CCN(C)CC2)cc1NC(=O)c1ccc(Nc2nc(-c3ccc(OC(F)(F)F)cc3)c3[nH]ccc3n2)cc1	1.39 nM
Cc1ccc(CN2CCOCC2)cc1NC(=O)c1ccc(Nc2nc(-c3ccc(OC(F)(F)F)cc3)c3ncn(C)c3n2)cc1	0.35 nM
Cc1ccc(OCCN2CCOCC2)cc1NC(=O)c1ccc(Nc2nc(-c3ccc(OC(F)(F)F)cc3)c3nc[nH]c3n2)cc1	2.98 nM
Cc1cccc(C)c1NC(=O)c1ccc(Nc2nc(-c3ccc(OC(F)(F)F)cc3)c3[nH]ccc3n2)cc1	12.8 nM
Cc1ccc(CN2CCOCC2)cc1NC(=O)c1ccc(Nc2nc(-c3ccc(OC(F)(F)F)cc3)c3nc[nH]c3n2)cc1	0.69 nM
O=C1Cc2cc(Nc3nc(-c4ccc(OC(F)(F)F)cc4)c4nc[nH]c4n3)ccc2N1	> 1000 nM
FC(F)(F)Oc1ccc(-c2nc(Nc3ccc4[nH]ncc4c3)nc3[nH]cnc23)cc1	399 nM
Cc1ccc(CN2CCOCC2)cc1NC(=O)c1ccc(Nc2nc(-c3ccc(OC(F)(F)F)cc3)c3cc[nH]c3n2)cc1	6.04 nM
